Laboratory results published in ChEMBL document CHEMBL1201862, “PubChem BioAssay data set” (2004).
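These data come from cells grown in 96-well plates and exposed to compound for 48 hours at five concentrations. GI50 is the concentration that inhibits growth by half.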 Activity calls are given as the source filed them. Cut-off read from the data, not from the text of the source: active = GI50 up to about 1.1 µM and inactive = higher.

What was measured:
Assay in all cases: growth of human tumour cells (NCI), 48 h
SW-620 = test system: SW-620
TK-10 = test system: TK-10
DU-145 = test system: DU-145
NCI/ADR-RES = test system: NCI/ADR-RES
SK-MEL-28 = test system: SK-MEL-28
ACHN = test system: ACHN
MDA-N = test system: MDA-N
T47D = test system: T47D
SK-MEL-5 = test system: SK-MEL-5
NCI-H460 = test system: NCI-H460
HCC 2998 = test system: HCC 2998
IGROV-1 = test system: IGROV-1
HL-60 = test system: HL-60
MDA-MB-231 = test system: MDA-MB-231
HT-29 = test system: HT-29
MOLT-4 = test system: MOLT-4
MCF7 = test system: MCF7
NCI-H226 = test system: NCI-H226
Malme-3M = test system: Malme-3M

Measured: GI50

O=[N+]([O-])c1ccc(Cl)cc1N/N=C/c1cccc2cccnc12
inactive: SW-620 96.6 µM | TK-10 > 100 µM | DU-145 > 100 µM | NCI/ADR-RES > 100 µM | SK-MEL-28 > 100 µM | ACHN > 100 µM | MDA-N > 100 µM | T47D > 100 µM | SK-MEL-5 > 100 µM | NCI-H460 > 100 µM | HCC 2998 > 100 µM | IGROV-1 > 100 µM | HL-60 > 100 µM | MDA-MB-231 > 100 µM | HT-29 > 100 µM | MOLT-4 39.7 µM | MCF7 > 100 µM

O=C1NC2(CN3CCC2CC3)C(=O)N1CN(Cc1ccccc1)c1ccccc1 (stereo not drawn)
inactive: SW-620 31.7 µM | TK-10 > 100 µM | DU-145 48.4 µM | NCI/ADR-RES > 100 µM | SK-MEL-28 > 100 µM | ACHN 72.8 µM | MDA-N > 100 µM | T47D 39 µM | SK-MEL-5 85.7 µM | NCI-H460 29.4 µM | HCC 2998 39.6 µM | IGROV-1 > 100 µM | HL-60 21.1 µM | MDA-MB-231 > 100 µM | HT-29 56.6 µM | NCI-H226 > 100 µM | MOLT-4 68.7 µM | MCF7 47.9 µM

c1cn(C23C4C5C6C4C2C6C53)cn1 (stereo not drawn)
inactive: SW-620 > 100 µM | TK-10 > 100 µM | DU-145 > 100 µM | NCI/ADR-RES > 100 µM | SK-MEL-28 > 100 µM | ACHN > 100 µM | MDA-N > 100 µM | T47D > 100 µM | SK-MEL-5 > 100 µM | NCI-H460 > 100 µM | HCC 2998 > 100 µM | IGROV-1 > 100 µM | HL-60 > 100 µM | MDA-MB-231 > 100 µM | HT-29 > 100 µM | NCI-H226 > 100 µM | MOLT-4 > 100 µM | MCF7 > 100 µM

O=C(NCc1ccc(Cl)c(Cl)c1)c1nc2ccccc2nc1NCc1ccc(Cl)c(Cl)c1
inactive: SW-620 > 100 µM | TK-10 > 100 µM | DU-145 > 100 µM | NCI/ADR-RES > 100 µM | SK-MEL-28 > 100 µM | ACHN > 100 µM | MDA-N > 100 µM | T47D > 100 µM | SK-MEL-5 > 100 µM | NCI-H460 > 100 µM | HCC 2998 > 100 µM | IGROV-1 > 100 µM | HL-60 > 100 µM | MDA-MB-231 > 100 µM | HT-29 > 100 µM | NCI-H226 > 100 µM | MCF7 > 100 µM

C[C@H]1[C@H]2[C@H]3CC[C@@H]4[C@@]5(C)CC[C@H](O)C(C)(C)[C@@H]5CC[C@@]4(C)[C@]3(C)C[C@H](O)[C@@]2(C)C[C@H]2O[C@]21C
inactive: SW-620 24 µM | TK-10 22.3 µM | DU-145 15.5 µM | NCI/ADR-RES 18.5 µM | SK-MEL-28 15.5 µM | ACHN 15.2 µM | MDA-N 18.9 µM | Malme-3M 20 µM | T47D 16 µM | SK-MEL-5 16.6 µM | NCI-H460 18.9 µM | HCC 2998 17.5 µM | IGROV-1 27.4 µM | HL-60 44 µM | MDA-MB-231 18 µM | HT-29 14.3 µM | MOLT-4 27.5 µM | MCF7 16.5 µM

CC12CCC([C@H](C(O)C3CCCCC3)C1=O)C2(C)C (stereo partly drawn)
inactive: SW-620 > 100 µM | TK-10 > 100 µM | DU-145 > 100 µM | NCI/ADR-RES > 100 µM | ACHN > 100 µM | MDA-N > 100 µM | T47D > 100 µM | SK-MEL-5 82.2 µM | NCI-H460 > 100 µM | HCC 2998 > 100 µM | IGROV-1 > 100 µM | HL-60 13.9 µM | MDA-MB-231 > 100 µM | NCI-H226 > 100 µM | MOLT-4 44.3 µM | MCF7 > 100 µM

CC1(C)CCC2=C(O1)/C(=N\Nc1ccccc1)c1ccccc1C2=O
inactive: SW-620 > 100 µM | TK-10 17.8 µM | DU-145 29.8 µM | NCI/ADR-RES 31.1 µM | SK-MEL-28 59.6 µM | ACHN 17.7 µM | MDA-N 16.1 µM | Malme-3M 43.9 µM | T47D 18.8 µM | SK-MEL-5 32.1 µM | NCI-H460 23.2 µM | IGROV-1 34.6 µM | HL-60 35.8 µM | MDA-MB-231 25.4 µM | HT-29 15.9 µM | NCI-H226 39.9 µM | MOLT-4 34 µM | MCF7 18.9 µM

O=[N+]([O-])/C(C(Cl)=C(Cl)Cl)=C(\NCc1ccccc1)Sc1ccccc1
inactive: SW-620 18.4 µM | DU-145 36.6 µM | NCI/ADR-RES 24.5 µM | SK-MEL-28 17.3 µM | ACHN 35.7 µM | MDA-N 31.7 µM | Malme-3M 16.8 µM | T47D 30.8 µM | NCI-H460 37 µM | HCC 2998 34.9 µM | MDA-MB-231 40.7 µM | HT-29 38.9 µM | NCI-H226 27.8 µM | MOLT-4 > 100 µM | MCF7 32.4 µM

O=C1/C(=C/c2ccc(Cl)cc2)N=C(c2ccccc2)N1c1nc2ccc(Sc3ccccc3)cc2[nH]1
inactive: SW-620 23.7 µM | TK-10 23.8 µM | DU-145 35.3 µM | NCI/ADR-RES 23.6 µM | SK-MEL-28 23.4 µM | ACHN 36.4 µM | MDA-N 10.6 µM | Malme-3M 23.4 µM | T47D 23.1 µM | SK-MEL-5 15.5 µM | NCI-H460 22.7 µM | HCC 2998 17.4 µM | IGROV-1 40.6 µM | HL-60 15.8 µM | MDA-MB-231 35.2 µM | HT-29 19.1 µM | MOLT-4 25.3 µM | MCF7 22.6 µM

COC(=O)[C@]12C3=C(O)C(=O)C[C@H]1OC[C@H]2C=CC3
inactive: SW-620 29.2 µM | TK-10 > 100 µM | DU-145 > 100 µM | NCI/ADR-RES > 100 µM | SK-MEL-28 > 100 µM | ACHN > 100 µM | MDA-N > 100 µM | Malme-3M > 100 µM | T47D > 100 µM | SK-MEL-5 > 100 µM | NCI-H460 > 100 µM | HCC 2998 > 100 µM | IGROV-1 > 100 µM | MDA-MB-231 > 100 µM | MCF7 > 100 µM

N#C[C@H]1Nc2ccccc2[C@@H](O)C1O (stereo partly drawn)
inactive: SW-620 > 100 µM | TK-10 > 100 µM | DU-145 > 100 µM | NCI/ADR-RES > 100 µM | SK-MEL-28 > 100 µM | ACHN > 100 µM | MDA-N > 100 µM | Malme-3M > 100 µM | T47D > 100 µM | SK-MEL-5 > 100 µM | NCI-H460 > 100 µM | HCC 2998 > 100 µM | IGROV-1 > 100 µM | HL-60 > 100 µM | MDA-MB-231 > 100 µM | HT-29 > 100 µM | MOLT-4 > 100 µM | MCF7 > 100 µM
